Experimental findings from patent publication US5314896A, “1,3-substituted cycloalkenes and cycloalkanes as central nervous system agents” (priority 1992, dated 1994) are described below.

For assay [1], the target named is dopamine receptors. Description: Inhibition of [^3 H] spiroperidol binding. Here is the method: (§1) The compounds of Formula I are valuable dopaminergic agents. […] Thus, the compounds of Formula I were tested for their ability to inhibit locomotor activity in mice and rats, a measure of antipsychotic activity, according to the assay described by J. R. McLean, et al, Pharmacology, Biochemistry and Behavior, Vol. 8, pages 97-99 (1978); for their ability to bind to dopamine receptors as measured by their inhibition of [^3 H]spiroperidol binding in a receptor assay described by D. Grigoriadis and P. Seeman, Journal of Neurochemistry, Vol. 44, pages 1925-1935 (1985); and for their ability to effect dopamine synthesis in rats according to the protocol described by J. R. Walters and R. H. Roth, Naunyn-Schmiedebero's Archives of Pharmacology, Vol. 296, pages 5-14 (1976). The above test methods are incorporated herein by reference. The data in the table show the dopaminergic activity of representative compounds of Formula I.

Assay [2] deals with Brain Dopamine Synthesis. Description: % effects on brain dopamine synthesis in rats. It is filed as in vivo. The note with it: Rattus norvegicus. On the procedure: as §1
Assay [3] deals with Locomotor Activity in Rats. The experiment in a line: Inhibition of locomotor activity in rats (oral). It is filed as in vivo. On the procedure:
(§2) Thus, the compounds of Formula I were tested for their ability to inhibit locomotor activity in mice and rats, a measure of antipsychotic activity, according to the assay described by J. R. McLean, et al, Pharmacology, Biochemistry and Behavior, Vol. 8, pages 97-99 (1978); for their ability to bind to dopamine receptors as measured by their inhibition of [^3 H]spiroperidol binding in a receptor assay described by D. Grigoriadis and P. Seeman, Journal of Neurochemistry, Vol. 44, pages 1925-1935 (1985); and for their ability to effect dopamine synthesis in rats according to the protocol described by J. R. Walters and R. H. Roth, Naunyn-Schmiedebero's Archives of Pharmacology, Vol. 296, pages 5-14 (1976). The above test methods are incorporated herein by reference.
(§3) The most important test is the locomotor activity orally in the rat as this corresponds most closely to human oral administration of an antipsychotic compound.

The subject of assay [4] is Locomotor Activity in Mice. The experiment in a line: Inhibition of locomotor activity in mice. The class given is in vivo. To be noted: Mus musculus. Here is the method:
as §1

In assay [5] the test system is dopamine receptors. Description: Comparison of 1,3 versus 1,4 series activity (binding and locomotor activity), results in words. To be noted: Table 2. On the procedure:
as §2, §3

Setting [6] is: ip, read-out: % Effects on Brain Dopamine Synthesis in Rats, rats, 10 mg/kg, IP (Table 1).
Setting [7] is: ip, read-out: Inhibition of Locomotor Activity in Mice ED50, mice, IP (Table 1).
Setting [8] is: mice, IP (Table 2), read-out: Inhibition of Locomotor Activity in Mice ED50.
Where [9] appears, read: rats, 10 mg/kg, IP (Table 1), read-out: % Effects on Brain Dopamine Synthesis in Rats.
Where [10] appears, read: mice, IP (Table 1), read-out: Inhibition of Locomotor Activity in Mice ED50.

The structures appear in SMILES notation. Read-outs that look alike come from different tables or passages of the source.

In the case of `C1=C(c2ccccc2)CCN(CC2CCC=C(c3ccccc3)C2)C1` (racemic) [Example 1, (±)-1,2,3,6-Tetrahydro-4-phenyl-1-[(3-phenyl-3-cyclohexen-1-yl)methyl]pyridine], the IC50 in assay [1] (Table 1) and in assay [1] (Table 2) was 72 nM each time. Moreover, in assay [2] (setting [6]), the change in vivo at 10 mg/kg was -86%. The “locomotor activity orally in the rat” value in assay [3] (Table 2 compounds) is recorded as “clearly the most potent”. Moreover, the “times more active than the 1,4 Compound C, locomotor activity orally in the rat” value in assay [3] (versus Compound C) is reported as 4.8 times. Besides, the ED50 worked out at 1.6 mg/kg in assay [4] (setting [7]) and 1.6 mg/kg in assay [4] (ip, read-out: Inhibition of Locomotor Activity in Mice ED50, mice, IP (Table 2)). In addition, the “binding and locomotor activity” value in assay [5] was “surprisingly much more active in its binding and locomotor activity”.

`C1=C(c2ccccc2)CC(N2CCN(c3ccccn3)CC2)CC1` (racemic) [Compound J, (±)-1-(3-phenyl-3-cyclohexen-1-yl)-4-(2-pyridinyl)piperazine, reference compound] showed an IC50 in assay [1] (Table 2) of 9850 nM. For the same molecule, the ED50 in assay [4] (setting [8]) amounted to 28.2 mg/kg. Further, the “binding and locomotor activity” value in assay [5] was “essentially inactive”.

Take `C1=C(c2ccccc2)CCC(N2CCN(c3ccccn3)CC2)C1` (racemic) [F, (±)-1-(4-phenyl-3-cyclohexen-1-yl)-4-(2-pyridinyl)piperazine, reference compound]: the IC50 in assay [1] (Table 2) worked out at 599 nM. In addition, the ED50 in assay [4] (setting [8]) is 1.01 mg/kg. The “binding and locomotor activity” value in assay [5] is reported as “much more active than Compound G”.

`C1=C(c2ccccc2)CCC(CCN2CCN(c3ccccn3)CC2)C1` (racemic) [H, (±)-1-[(4-phenyl-3-cyclohexen-1-yl)ethyl]-4-(2-pyridinyl)piperazine, reference compound] had an IC50 in assay [1] (Table 2) of 409 nM. Also, the ED50 in assay [4] (setting [8]) stood at 1.1 mg/kg. Further, in assay [5], the “binding and locomotor activity” value was “much more active than Compound G”.

`C1=C(c2ccccc2)CC(CN2CCN(c3ccccn3)CC2)CC1` (racemic) [Example 4, (±)-1-[(3-phenyl-3-cyclohexen-1-yl)methyl]-4-(2-pyridinyl)piperazine]: the IC50 in assay [1] (Table 1) and in assay [1] (Table 2) was 141 nM throughout. For the same molecule, the change in vivo at 10 mg/kg in assay [2] (setting [9]) was -61%. Besides, in assay [4] (setting [10]), the ED50 came out at 0.85 mg/kg. Also, the “binding and locomotor activity” value in assay [5] was “very potent”.

Molecule `C1=C(c2ccccc2)CCN(C[C@@H]2CCC=C(c3cccnc3)C2)C1.Cl` [Example 12, (R)-3-[5-[(3,6-dihydro-4-phenyl-1(2H)-pyridinyl)methyl]-1-cyclohexen-1-yl]pyridine monohydrochloride] gave an IC50 in assay [1] (Table 1) of 82 nM. Further, the change in vivo at 10 mg/kg in assay [2] (setting [6]) was -85%. For the same molecule, the 50% effective dose (ED50) in assay [4] (setting [7]) is 0.01 mg/kg.

`C1=C(c2ccccc2)CCN(CC2CCC=C(c3c[nH]c4ccccc34)C2)C1` (racemic) [Example 26, (±)-3-[5-[(3,6-dihydro-4-phenyl-1(2H)-pyridinyl)methyl]-1-cyclohexen-1-yl]-1H-indole] gave an IC50 in assay [1] (Table 1) of 288 nM. Moreover, in assay [2] (setting [6]), the change in vivo at 10 mg/kg was -23%. Also, the ED50 in assay [4] (setting [7]) was 2 mg/kg.

In assay [1] (Table 1), `C1=C(c2ccccc2)C[C@H](CN2CCN(c3ccccn3)CC2)CC1` [Example 21, (R)-1-[(3-Phenyl-3-cyclohexen-1-yl)methyl]-4-(2-pyridinyl)piperazine] displayed an IC50 of 76 nM. The change in vivo at 10 mg/kg in assay [2] (setting [9]) is -27%. Further, the ED50 in assay [4] (setting [10]) was 9.9 mg/kg.

On to `C1=C(c2cccnc2)CCC[C@H]1CN1CC=C(c2ccccc2)CC1.Cl.Cl` [Example 12a, (R)-3-[3-[(3,6-dihydro-4-phenyl-1(2H)-pyridinyl)methyl]-1-cyclohexen-1-yl]pyridine dihydrochloride], for which the IC50 in assay [1] (Table 1) is 87 nM. Besides, in assay [2] (setting [6]), the change in vivo at 10 mg/kg was -97%. For the same molecule, the median effective dose (ED50) in assay [4] (setting [7]) stood at 0.07 mg/kg.
